Measurements reported in PubChem BioAssay (NCI).
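Results reflect a 48-hour exposure of cells in 96-well plates to compound at five concentrations. TGI: total growth inhibition.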

Legend:
Assay in all cases: NCI anticancer screen, dose series, 48 h
[1] = test system: KM20L2 colon
[2] = test system: CAKI-1 renal
[3] = test system: OVCAR-5 ovarian
[4] = test system: HCT-15 colon
[5] = test system: EKVX NSCLC
[6] = test system: HL-60(TB) leukemia
[7] = test system: NCI-H460 lung
[8] = test system: COLO 205 colon
[9] = test system: NCI-H23 lung
[10] = test system: NCI-H522 lung
[11] = test system: OVCAR-8 ovarian
[12] = test system: SK-OV-3 ovarian
[13] = test system: OVCAR-3 ovarian
[14] = test system: SF-295 CNS
[15] = test system: HCC-2998 colon
[16] = test system: SNB-78 CNS
[17] = test system: RXF-631 renal
[18] = test system: HOP-18 NSCLC
[19] = test system: RPMI-8226 leukemia
[20] = test system: UACC-257 melanoma
[21] = test system: DLD-1 colon
[22] = test system: SN12C renal
[23] = test system: UO-31 renal
[24] = test system: K-562 leukemia
[25] = test system: SF-539 CNS
[26] = test system: SK-MEL-2 melanoma
[27] = test system: CCRF-CEM leukemia
[28] = test system: ACHN renal
[29] = test system: M19-MEL melanoma
[30] = test system: SR leukemia
[31] = test system: MOLT-4 leukemia
[32] = test system: UACC-62 melanoma
[33] = test system: A498 renal
[34] = test system: KM12 colon
[35] = test system: SK-MEL-5 melanoma
[36] = test system: SNB-19 CNS
[37] = test system: XF 498 CNS
[38] = test system: HT29 colon
[39] = test system: MALME-3M melanoma
[40] = test system: SW-620 colon
[41] = test system: A549 NSCLC
[42] = test system: M14 melanoma
[43] = test system: TK-10 renal
[44] = test system: OVCAR-4 ovarian
[45] = test system: IGROV1 ovarian
[46] = test system: DMS 273 small cell lung
[47] = test system: HOP-62 NSCLC
[48] = test system: SNB-75 CNS
[49] = test system: LXFL 529 NSCLC
[50] = test system: U251 CNS
[51] = test system: HCT-116 colon
[52] = test system: 786-0 renal
[53] = test system: NCI-H226 lung

Measured: TGI

O=C1c2ccccc2C(=O)N1C/C=N/NS(=O)(=O)c1ccc2ccccc2c1
> 100 µM: all assays above
